Reference: patent US10689622B2, “Culture medium for proliferating stem cell, which contains sulfated compound” (AJINOMOTO CO., INC., priority 2012, dated 2020)

Columns and labels:
[1] = molecular target: T1, bFGF (Homo sapiens, UniProt P09038); test: Evaluation of bFGF stabilization in Lonza serum-free medium (ELISA); format: biochemical; details: for bFGF concentration relative to that of 4° C. control (ELISA): Lonza serum-free medium, 37° C. for 7 days; for effectiveness ELISA: effectiveness in ELISA evaluation of mesenchymal stem cells (medium), 4° C. control ratio
T1 construct: purchased Lonza (via TAKARA BIO INC.) Ser. No. 00/190,632
T1 sequence (P09038 143-288): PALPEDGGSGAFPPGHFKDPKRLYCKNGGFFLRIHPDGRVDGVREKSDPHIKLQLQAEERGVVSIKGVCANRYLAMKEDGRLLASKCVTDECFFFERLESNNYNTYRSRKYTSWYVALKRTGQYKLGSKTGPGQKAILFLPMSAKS
Experimental: (§1) A test compound was dissolved in phosphate buffered saline, and diluted 10-fold with a serum-free medium to adjust to the concentrations shown in Table 4 (test sample). The test sample was left standing in a tightly sealed Falcon tube at 37° C. for 7 days (Tables 5 to 8-2) or 3 days (Table 8-3), and the bFGF concentration was quantified by ELISA measurement. A phosphate buffered saline without a test compound was diluted 10-fold with a serum-free medium, and left standing at 37° C. or 4° C. for 7 days or 3 days, and used as a control.
(§2) A commercially available measurement kit (human bFGF ELISA kit, ELH-bFGF-001, Ray Biotech) was used for quantification of bFGF in the medium. The measurement procedures followed the protocol attached to the kit. The bFGF concentration of the serum-free medium was calculated from the analytical curve (conversion formula) drawn from the absorbance of an analytical curve standard solution. The evaluation criteria of Tables 5-8 are as follows:
as §1, with “Table 13” for “Table 4”, “7 days,” for “7 days (Tables 5 to 8-2) or 3 days (Table 8-3),”, “7” for “7 days or 3”
as §2, with “Table 13” for “Tables 5-8”, “follows: […]” for “follows:”

[2] = molecular target: T1, bFGF; test: Evaluation of bFGF stabilization in Essential 8 medium (ELISA); format: biochemical; details: 37° C. for 7 days
Experimental: as §2
(§3) A test compound was dissolved in phosphate buffered saline, and diluted 10-fold with a serum-free medium to adjust the concentration shown in Table 4 (test sample). The test sample was left standing in a tightly sealed Falcon tube at 37° C. for 7 days, and the bFGF concentration was quantified by ELISA measurement. A phosphate buffered saline without a test compound was diluted 10-fold with Essential 8 medium or ReproFF2 medium, and left standing at 37° C. or 4° C. for 7 days, and used as a control.
as §2, with “Table 13” for “Tables 5-8”
as §3, with “Table 12” for “Table 4”

[3] = Measurement of content level of sulfur in test compound (ICP); format: physicochemical; details: ICPS-8100, evaluation samples containing 0.01 wt % test compound
Text: (§4) The content level of sulfur in the sulfated saccharide is generally not less than 5 wt %, preferably not less than 10 wt %, more preferably not less than 15 wt %, and the upper limit is generally not more than 40 wt %, preferably not more than 35 wt %, more preferably not more than 30 wt %. […] Here, the content level of sulfur is a proportion in wt % of sulfur derived only from the sulfate group in sulfated saccharides, which can be measured by a method known in the field (e.g., rhodizonate method, elemental analysis or luminescent spectral analysis).
as §4, with “polymer” for “saccharide”, “wt” for “wt %, preferably not more than 35 wt %, more preferably not more than 30 wt”, “in” for “derived only from”, “the” for “the sulfate group in”, “polymer,” for “saccharides,”, “such as” for “(e.g.,”
The relationship between the content level of sulfur in a test compound (sulfur content) and the cell proliferation promoting effect was examined. The sulfur content was measured using ICPS-8100 manufactured by SHIMADZU CORPORATION and analyzed using ICPS-8000 series Ver1.03. As the reference standard of sulfur, the standard for ICP-MS manufactured by Accu Standard was used. Sulfur reference standard solutions (0, 1, 10, 30, 50 ppm) were prepared, and the sulfur content of the evaluation samples containing 0.01 wt % test compound was measured by an analytical curve method.

[4] = test system: Human bone marrow-derived mesenchymal stem cells; test: Mesenchymal stem cell proliferation system (cell number by DNA quantification); details: growth of mesenchymal stem cell, control ratio
Experimental: Human bone marrow-derived mesenchymal stem cells (Lonza, Human Mesenchymal Stem Cell) cultured in mesenchymal stem cell-dedicated medium (Lonza, MSCGM) or Dulbecco's Modified Eagle Medium (Invitrogen, GIBCO D-MEM) containing inactivated fetal bovine serum (Invitrogen, GIBCO FBS) and penicillin-streptomycin (Sigma-Aldrich Co. LLC.) were cultured in exchanged Lonza serum-free medium. The mesenchymal stem cells thus-acclimated to serum-free culture were suspended in Lonza serum-free medium, and seeded on a 24 well culture plate (Nippon Becton Dickinson Company, Ltd., Falcon culture plate) at 20,000 cells/well or a 6 well culture plate (Nippon Becton Dickinson Company, Ltd., Falcon culture plate) at 50,000 cells/well. Then, a test compound solution after filter sterilization and adjustment to a given concentration was added, and the cells were cultured in an incubator (Thermo Scientific, Forma incubator) under the 5% CO2/37° C. conditions for 7 to 8 days. When the medium exchange was necessary, the medium was exchanged 2 to 3 days after the seeding. In this case, the test compound solution was also added again in the same manner as in seeding. In this case, various compound solutions were added again in the same manner as in seeding. After culturing for 7 to 8 days, the medium was removed and DNA quantification was performed. As a control, the cells were cultured in the same manner in a medium without a test compound and added with phosphate buffered saline.
The medium in the 24 well culture plate was removed, and the cells were washed with phosphate buffered saline. The sodium lauryl sulfate solution (500 μl/well) was added, and the mixture was left standing at 37° C. for 4 hours. The sodium lauryl sulfate solution (1.0 ml) was also added to a cell pellet with a known cell number, and the mixture was left standing at 37° C. for 4 hours. As for the cells in the 24 well culture plate, a part (50 μl) of the lysate was transferred to a 96 well black microplate. The solution used for treating the cell pellets was successively diluted with sodium lauryl sulfate solution and used as solutions for drawing an analytical curve. Also, a part (50 μl) of the solutions for drawing an analytical curve was each transferred to the 96 well black microplate. […] The fluorescence was measured by a microplate reader (excitation wavelength: 355 nm, measurement wavelength: 460 nm) within 5 minutes from the addition. The cell number of the 24 well cell culture plate was calculated from the analytical curve drawn (conversion formula). The evaluation criteria were as follows.

effectiveness ELISA [1]	concentration showing a suppressive effect on a decrease in the bFGF concentration of the medium [2]	sulfur content Found (inorganic analysis) [3]	Compound	bFGF concentration relative to that of 4° C. control (ELISA) ([1]; test compound 25 ng/ml)	bFGF concentration relative to that of 4° C. control (ELISA) ([1]; test compound 250 ng/ml)	bFGF concentration relative to that of 4° C. control (ELISA) ([1]; test compound 25 μg/ml)	bFGF concentration relative to that of 4° C. control (ELISA) ([1]; test compound 250 μg/ml)	bFGF concentration relative to that of 4° C. control (ELISA) ([2]; test compound 250 pg/ml)	bFGF concentration relative to that of 4° C. control (ELISA) ([2]; test compound 25 ng/ml)	bFGF concentration relative to that of 4° C. control (ELISA) ([2]; test compound 250 ng/ml)	bFGF concentration relative to that of 4° C. control (ELISA) ([2]; test compound 25 μg/ml)	bFGF concentration relative to that of 4° C. control (ELISA) ([2]; test compound 250 μg/ml)	effectiveness cells [4]
+++ (+++ 70%<)	not less than 25 μg/ml	19 wt %	O=S(=O)([O-])OC1C(OS(=O)(=O)[O-])C(OS(=O)(=O)[O-])C(OS(=O)(=O)[O-])C(OS(=O)(=O)[O-])C1OS(=O)(=O)[O-].[K+].[K+].[K+].[K+].[K+].[K+] (stereo not shown) [myo-inositol 6SO3K]	x (bFGF concentration was less than 10% relative to that of 4 °C control)	x (bFGF concentration was less than 10% relative to that of 4 °C control)	+ (bFGF concentration was not less than 30% and less than 50% relative to that of 4 °C control)	++ (bFGF concentration was not less than 50% and less than 70% relative to that of 4 °C control)	x (bFGF concentration was less than 10% relative to that of 4 °C control)	x (bFGF concentration was less than 10% relative to that of 4 °C control)	x (bFGF concentration was less than 10% relative to that of 4 °C control)	+++ (bFGF concentration was not less than 70% relative to that of 4 °C control)	+++ (bFGF concentration was not less than 70% relative to that of 4 °C control)	–
+ (+ 30%<)	not less than 2.5 mg/ml	23 wt %	glucose SO3Na	x (bFGF concentration was less than 10% relative to that of 4 °C control)	x (bFGF concentration was less than 10% relative to that of 4 °C control)	x (bFGF concentration was less than 10% relative to that of 4 °C control)	− (bFGF concentration was not less than 10% and less than 30% relative to that of 4 °C control)	x (bFGF concentration was less than 10% relative to that of 4 °C control)	x (bFGF concentration was less than 10% relative to that of 4 °C control)	x (bFGF concentration was less than 10% relative to that of 4 °C control)	+++ (bFGF concentration was not less than 70% relative to that of 4 °C control)	+++ (bFGF concentration was not less than 70% relative to that of 4 °C control)	–
+ (+ 30%<)	–	23 wt %	glycerol SO3Na	x (bFGF concentration was less than 10% relative to that of 4 °C control)	x (bFGF concentration was less than 10% relative to that of 4 °C control)	x (bFGF concentration was less than 10% relative to that of 4 °C control)	x (bFGF concentration was less than 10% relative to that of 4 °C control)	–	–	–	–	–	–
+++ (+++ 70%<)	not less than 250 μg/ml	18 wt %	stachyose SO3Na	x (bFGF concentration was less than 10% relative to that of 4 °C control)	− (bFGF concentration was not less than 10% and less than 30% relative to that of 4 °C control)	+++ (bFGF concentration was not less than 70% relative to that of 4 °C control)	+++ (bFGF concentration was not less than 70% relative to that of 4 °C control)	x (bFGF concentration was less than 10% relative to that of 4 °C control)	x (bFGF concentration was less than 10% relative to that of 4 °C control)	x (bFGF concentration was less than 10% relative to that of 4 °C control)	x (bFGF concentration was less than 10% relative to that of 4 °C control)	++ (bFGF concentration was not less than 50% and less than 70% relative to that of 4 °C control)	–
++ (++ 50%<)	not less than 2.5 μg/ml	14 wt %	α-cyclodextrin SO3Na [α-CD•SO3Na]	x (bFGF concentration was less than 10% relative to that of 4 °C control)	+ (bFGF concentration was not less than 30% and less than 50% relative to that of 4 °C control)	− (bFGF concentration was not less than 10% and less than 30% relative to that of 4 °C control)	+ (bFGF concentration was not less than 30% and less than 50% relative to that of 4 °C control)	x (bFGF concentration was less than 10% relative to that of 4 °C control)	x (bFGF concentration was less than 10% relative to that of 4 °C control)	x (bFGF concentration was less than 10% relative to that of 4 °C control)	+++ (bFGF concentration was not less than 70% relative to that of 4 °C control)	+++ (bFGF concentration was not less than 70% relative to that of 4 °C control)	–

Compound	effectiveness ELISA [1]	concentration showing a suppressive effect on a decrease in the bFGF concentration of the medium [2]	sulfur content Found (inorganic analysis) [3]	bFGF concentration relative to that of 4° C. control (ELISA) ([1]; test compound 25 ng/ml)	bFGF concentration relative to that of 4° C. control (ELISA) ([1]; test compound 250 ng/ml)	bFGF concentration relative to that of 4° C. control (ELISA) ([1]; test compound 25 μg/ml)	bFGF concentration relative to that of 4° C. control (ELISA) ([1]; test compound 250 μg/ml)	bFGF concentration relative to that of 4° C. control (ELISA) ([2]; test compound 250 pg/ml)	bFGF concentration relative to that of 4° C. control (ELISA) ([2]; test compound 25 ng/ml)	bFGF concentration relative to that of 4° C. control (ELISA) ([2]; test compound 250 ng/ml)	bFGF concentration relative to that of 4° C. control (ELISA) ([2]; test compound 25 μg/ml)	bFGF concentration relative to that of 4° C. control (ELISA) ([2]; test compound 250 μg/ml)	effectiveness cells [4]
xylitol SO3Na	+++ (+++ 70%<)	–	25 wt %	x (bFGF concentration was less than 10% relative to that of 4 °C control)	x (bFGF concentration was less than 10% relative to that of 4 °C control)	x (bFGF concentration was less than 10% relative to that of 4 °C control)	++ (bFGF concentration was not less than 50% and less than 70% relative to that of 4 °C control)	–	–	–	–	–	◯ (◯ not leas than 100%)
